Data: patent US20240239861A1, “GLUCAGON-RECEPTOR SELECTIVE POLYPEPTIDES AND METHODS OF USE THEREOF” (i2O Therapeutics, Inc., priority 2016, published 2024)
pEC50: −log10 of the molar value. Where a SMILES comes first, the peptide text is derived from it. [ ]: non-standard residue; d: D form. Aib = CC(C)(N)C(=O)O

Biological target: human GLP-1R (Homo sapiens, UniProt P43220)
Assay: Peptide-receptor mediated cAMP accumulation (LANCE Ultra cAMP) in CHO-K1 cells transfected with human GLP-1R
Assay type: cell-based
Conditions: hGLP1 pEC50 (cAMP mean (n = 3): 11 point curve starting at 1 nM, Table 3)

Sequence of human GLP-1R (P43220 24-463): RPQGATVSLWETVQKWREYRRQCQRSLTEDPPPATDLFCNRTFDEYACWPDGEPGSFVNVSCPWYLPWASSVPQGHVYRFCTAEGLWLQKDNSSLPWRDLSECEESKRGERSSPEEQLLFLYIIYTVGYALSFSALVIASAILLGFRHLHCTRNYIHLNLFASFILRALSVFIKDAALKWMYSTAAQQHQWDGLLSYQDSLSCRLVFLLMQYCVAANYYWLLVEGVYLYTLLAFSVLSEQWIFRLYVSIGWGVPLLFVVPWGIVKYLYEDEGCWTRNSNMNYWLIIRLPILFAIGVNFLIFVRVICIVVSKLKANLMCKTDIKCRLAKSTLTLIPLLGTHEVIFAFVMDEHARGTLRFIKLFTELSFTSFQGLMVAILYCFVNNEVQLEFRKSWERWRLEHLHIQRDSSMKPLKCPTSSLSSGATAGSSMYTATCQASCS

| SMILES | pEC50 |
| --- | --- |
| CC(C)C[C@H](NC(=O)[C@H](Cc1c[nH]c2ccccc12)NC(=O)[C@H](CCCCN)NC(=O)[C@H](CO)NC(=O)[C@H](Cc1ccc(O)cc1)NC(=O)[C@H](CC(=O)O)NC(=O)[C@H](CO)NC(=O)[C@@H](NC(=O)[C@H](Cc1ccccc1)NC(=O)[C@@H](NC(=O)CNC(=O)[C@H](Cc1c[nH]cn1)NC(=O)[C@H](CO)NC(=O)[C@@H](N)Cc1ccc(O)cc1)[C@@H](C)O)[C@@H](C)O)C(=O)N[C@@H](CC(=O)O)C(=O)N[C@@H](CO)C(=O)N[C@@H](C)C(=O)N[C@@H](CCCNC(=N)N)C(=O)N[C@@H](C)C(=O)N[C@@H](CCC(N)=O)C(=O)N[C@@H](CCC(=O)O)C(=O)N[C@@H](Cc1ccccc1)C(=O)N[C@H](C(=O)N[C@@H](CCCCN)C(=O)N[C@@H](Cc1c[nH]c2ccccc12)C(=O)N[C@@H](CC(C)C)C(=O)N[C@@H](CCC(=O)O)C(=O)N[C@@H](CC(=O)O)C(=O)N[C@@H](CCC(=O)O)C(=O)N1CCC[C@H]1C(=O)N[C@@H](CO)C(=O)N[C@@H](CO)C(=O)NCC(=O)N[C@@H](C)C(=O)N1CCC[C@H]1C(=O)N1CCC[C@H]1C(=O)N1CCC[C@H]1C(=O)N[C@@H](CO)C(=O)O)C(C)C [Compound A38] (H-YSHGTFTSDYSKWLDSARAQEFVKWLEDEPSSGAPPPS-OH; N-terminus assumed) | < 9.00 |
| CC[C@H](C)[C@H](NC(=O)[C@@H]1CCCN1C(=O)[C@@H]1CCCN1C(=O)[C@H](CCCCN)NC(=O)[C@H](CC(N)=O)NC(=O)[C@H](CCCNC(=N)N)NC(=O)[C@H](CCCCN)NC(=O)[C@H](CCC(=O)O)NC(=O)[C@H](CC(=O)O)NC(=O)[C@H](CCC(=O)O)NC(=O)[C@H](CC(C)C)NC(=O)[C@H](Cc1c[nH]c2ccccc12)NC(=O)C(C)(C)NC(=O)[C@@H](NC(=O)[C@H](Cc1ccccc1)NC(=O)[C@H](CCC(=O)O)NC(=O)[C@H](CCC(N)=O)NC(=O)[C@H](C)NC(=O)[C@H](CCCNC(=N)N)NC(=O)[C@H](CCCCN)NC(=O)C(C)(C)NC(=O)[C@H](CC(=O)O)NC(=O)[C@H](CC(C)C)NC(=O)[C@H](Cc1ccc(O)cc1)NC(=O)[C@H](CCCCN)NC(=O)[C@H](CO)NC(=O)[C@H](Cc1ccc(O)cc1)NC(=O)[C@H](CC(=O)O)NC(=O)[C@H](CO)NC(=O)[C@@H](NC(=O)[C@H](Cc1ccccc1)NC(=O)[C@@H](NC(=O)CNC(=O)[C@H](Cc1c[nH]cn1)NC(=O)[C@H](CO)NC(=O)[C@@H](N)Cc1ccc(O)cc1)[C@@H](C)O)[C@@H](C)O)C(C)C)C(=O)N[C@@H](C)C(=O)O [Compound A46] (H-YSHGTFTSDYSKYLD[Aib]KRAQEFV[Aib]WLEDEKRNKPPIA-OH; N-terminus assumed) | < 9.00 |
| CC(C)C[C@H](NC(=O)[C@H](Cc1ccc(O)cc1)NC(=O)[C@H](CCCCN)NC(=O)[C@H](CO)NC(=O)[C@H](Cc1ccc(O)cc1)NC(=O)[C@H](CC(=O)O)NC(=O)[C@H](CO)NC(=O)[C@@H](NC(=O)[C@H](Cc1ccccc1)NC(=O)[C@@H](NC(=O)CNC(=O)[C@H](Cc1c[nH]cn1)NC(=O)[C@H](CO)NC(=O)[C@@H](N)Cc1ccc(O)cc1)[C@@H](C)O)[C@@H](C)O)C(=O)N[C@@H](CC(=O)O)C(=O)NC(C)(C)C(=O)N[C@@H](CCCCN)C(=O)N[C@@H](CCCNC(=N)N)C(=O)N[C@@H](C)C(=O)N[C@@H](CCC(N)=O)C(=O)N[C@@H](CCC(=O)O)C(=O)N[C@@H](Cc1ccccc1)C(=O)N[C@H](C(=O)NC(C)(C)C(=O)N[C@@H](Cc1c[nH]c2ccccc12)C(=O)N[C@@H](CC(C)C)C(=O)N[C@@H](CCC(=O)O)C(=O)N[C@@H](CC(=O)O)C(=O)N[C@@H](CCC(=O)O)C(=O)N1CCC[C@H]1C(=O)N[C@@H](CCCNC(=N)N)C(=O)N[C@@H](CC(N)=O)C(=O)N[C@@H](CCCCN)C(=O)N[C@@H](CC(N)=O)C(=O)N[C@@H](CC(N)=O)C(=O)N1CCC[C@H]1C(=O)N1CCC[C@H]1C(=O)N[C@@H](CO)C(=O)O)C(C)C [Compound A49] (H-YSHGTFTSDYSKYLD[Aib]KRAQEFV[Aib]WLEDEPRNKNNPPS-OH; N-terminus assumed) | < 9.00 |
| CC(C)C[C@H](NC(=O)[C@H](CC(=O)O)NC(=O)[C@H](CC(C)C)NC(=O)[C@H](Cc1ccc(O)cc1)NC(=O)[C@H](CCCCN)NC(=O)[C@H](CO)NC(=O)[C@H](Cc1ccc(O)cc1)NC(=O)[C@H](CC(=O)O)NC(=O)[C@H](CO)NC(=O)[C@@H](NC(=O)[C@H](Cc1ccccc1)NC(=O)[C@@H](NC(=O)CNC(=O)[C@H](Cc1c[nH]cn1)NC(=O)[C@H](CO)NC(=O)[C@@H](N)Cc1ccc(O)cc1)[C@@H](C)O)[C@@H](C)O)C(=O)N[C@@H](CCCCN)C(=O)N[C@@H](CCCNC(=N)N)C(=O)N[C@@H](C)C(=O)N[C@@H](CCC(N)=O)C(=O)N[C@@H](CCC(=O)O)C(=O)N[C@@H](Cc1ccccc1)C(=O)N[C@H](C(=O)NC(C)(C)C(=O)N[C@@H](Cc1c[nH]c2ccccc12)C(=O)N[C@@H](CC(C)C)C(=O)N[C@@H](CCC(=O)O)C(=O)N[C@@H](CC(=O)O)C(=O)N[C@@H](CCC(=O)O)C(=O)N1CCC[C@H]1C(=O)N[C@@H](CO)C(=O)N[C@@H](CO)C(=O)NCC(=O)N[C@@H](C)C(=O)N1CCC[C@H]1C(=O)N1CCC[C@H]1C(=O)N1CCC[C@H]1C(=O)N[C@@H](CO)C(=O)O)C(C)C [Compound A51] (H-YSHGTFTSDYSKYLDLKRAQEFV[Aib]WLEDEPSSGAPPPS-OH; N-terminus assumed) | < 9.00 |
| CC(C)C[C@H](NC(=O)[C@H](Cc1ccc(O)cc1)NC(=O)[C@H](CCCCN)NC(=O)[C@H](CO)NC(=O)[C@H](Cc1ccc(O)cc1)NC(=O)[C@H](CC(=O)O)NC(=O)[C@H](CO)NC(=O)[C@@H](NC(=O)[C@H](Cc1ccccc1)NC(=O)[C@@H](NC(=O)CNC(=O)[C@H](Cc1c[nH]cn1)NC(=O)[C@H](CO)NC(=O)[C@@H](N)Cc1ccc(O)cc1)[C@@H](C)O)[C@@H](C)O)C(=O)N[C@@H](CC(=O)O)C(=O)NC(C)(C)C(=O)N[C@@H](CCCCN)C(=O)N[C@@H](CCCNC(=N)N)C(=O)N[C@@H](C)C(=O)N[C@@H](CCC(N)=O)C(=O)N[C@@H](CCC(=O)O)C(=O)N[C@@H](Cc1ccccc1)C(=O)N[C@H](C(=O)NC(C)(C)C(=O)N[C@@H](Cc1c[nH]c2ccccc12)C(=O)N[C@@H](CC(C)C)C(=O)N[C@@H](CCC(=O)O)C(=O)N[C@@H](CC(=O)O)C(=O)N[C@@H](CCC(=O)O)C(=O)N1CCC[C@H]1C(=O)N[C@@H](CO)C(=O)N[C@@H](CO)C(=O)N[C@@H](CCCCN)C(=O)N[C@@H](CO)C(=O)N1CCC[C@H]1C(=O)N1CCC[C@H]1C(=O)N1CCC[C@H]1C(=O)N[C@@H](CO)C(=O)O)C(C)C [Compound A55] (H-YSHGTFTSDYSKYLD[Aib]KRAQEFV[Aib]WLEDEPSSKSPPPS-OH; N-terminus assumed) | < 9.00 |
| CC(C)C[C@H](NC(=O)[C@H](Cc1ccc(O)cc1)NC(=O)[C@H](CCCCN)NC(=O)[C@H](CO)NC(=O)[C@H](Cc1ccc(O)cc1)NC(=O)[C@H](CC(=O)O)NC(=O)[C@H](CO)NC(=O)[C@@H](NC(=O)[C@H](Cc1ccccc1)NC(=O)[C@@H](NC(=O)CNC(=O)[C@H](Cc1c[nH]cn1)NC(=O)[C@H](CO)NC(=O)[C@@H](N)Cc1ccc(O)cc1)[C@@H](C)O)[C@@H](C)O)C(=O)N[C@@H](CC(=O)O)C(=O)NC(C)(C)C(=O)N[C@@H](CCCCN)C(=O)N[C@@H](CCCNC(=N)N)C(=O)N[C@@H](C)C(=O)N[C@@H](CCC(N)=O)C(=O)N[C@@H](CCC(=O)O)C(=O)N[C@@H](Cc1ccccc1)C(=O)N[C@H](C(=O)NC(C)(C)C(=O)N[C@@H](Cc1c[nH]c2ccccc12)C(=O)N[C@@H](CC(C)C)C(=O)N[C@@H](CCC(=O)O)C(=O)N[C@@H](CC(=O)O)C(=O)N[C@@H](CCC(=O)O)C(=O)N1CCC[C@H]1C(=O)N[C@@H](CO)C(=O)N[C@@H](CO)C(=O)N[C@@H](CCCCN)C(=O)N[C@@H](CCC(N)=O)C(=O)N1CCC[C@H]1C(=O)N1CCC[C@H]1C(=O)N1CCC[C@H]1C(=O)N[C@@H](CO)C(=O)O)C(C)C [Compound A59] (H-YSHGTFTSDYSKYLD[Aib]KRAQEFV[Aib]WLEDEPSSKQPPPS-OH; N-terminus assumed) | < 9.00 |
| CC(C)C[C@H](NC(=O)[C@H](Cc1ccc(O)cc1)NC(=O)[C@H](CCCCN)NC(=O)[C@H](CO)NC(=O)[C@H](Cc1ccc(O)cc1)NC(=O)[C@H](CC(=O)O)NC(=O)[C@H](CO)NC(=O)[C@@H](NC(=O)[C@H](Cc1ccccc1)NC(=O)[C@@H](NC(=O)CNC(=O)[C@H](Cc1c[nH]cn1)NC(=O)[C@H](CO)NC(=O)[C@@H](N)Cc1ccc(O)cc1)[C@@H](C)O)[C@@H](C)O)C(=O)N[C@@H](CC(=O)O)C(=O)NC(C)(C)C(=O)N[C@@H](CCCCN)C(=O)N[C@@H](CCCNC(=N)N)C(=O)N[C@@H](C)C(=O)N[C@@H](CCC(N)=O)C(=O)N[C@@H](CCC(=O)O)C(=O)N[C@@H](Cc1ccccc1)C(=O)N[C@H](C(=O)NC(C)(C)C(=O)N[C@@H](Cc1c[nH]c2ccccc12)C(=O)N[C@@H](CC(C)C)C(=O)N[C@@H](CCC(=O)O)C(=O)N[C@@H](CC(=O)O)C(=O)N[C@@H](CCC(=O)O)C(=O)N1CCC[C@H]1C(=O)N[C@@H](CCCCN)C(=O)N[C@@H](CO)C(=O)N[C@@H](CCCCN)C(=O)N[C@@H](CCC(=O)O)C(=O)N1CCC[C@H]1C(=O)N1CCC[C@H]1C(=O)N1CCC[C@H]1C(=O)N[C@@H](CO)C(N)=O)C(C)C [Compound A65] (H-YSHGTFTSDYSKYLD[Aib]KRAQEFV[Aib]WLEDEPKSKEPPPS-NH2; N-terminus assumed) | < 9.00 |
| CC(C)C[C@H](NC(=O)[C@H](Cc1ccc(O)cc1)NC(=O)[C@H](CCCCN)NC(=O)[C@H](CO)NC(=O)[C@H](Cc1ccc(O)cc1)NC(=O)[C@H](CC(=O)O)NC(=O)[C@H](CO)NC(=O)[C@@H](NC(=O)[C@H](Cc1ccccc1)NC(=O)[C@@H](NC(=O)CNC(=O)[C@H](Cc1c[nH]cn1)NC(=O)[C@H](CO)NC(=O)[C@@H](N)Cc1ccc(O)cc1)[C@@H](C)O)[C@@H](C)O)C(=O)N[C@@H](CC(=O)O)C(=O)NC(C)(C)C(=O)N[C@@H](CCCCN)C(=O)N[C@@H](CCCNC(=N)N)C(=O)N[C@@H](C)C(=O)N[C@@H](CCC(N)=O)C(=O)N[C@@H](CCC(=O)O)C(=O)N[C@@H](Cc1ccccc1)C(=O)N[C@H](C(=O)NC(C)(C)C(=O)N[C@@H](Cc1c[nH]c2ccccc12)C(=O)N[C@@H](CC(C)C)C(=O)N[C@@H](CCC(=O)O)C(=O)N[C@@H](CC(=O)O)C(=O)N[C@@H](CCC(=O)O)C(=O)N1CCC[C@H]1C(=O)N[C@@H](CCCCN)C(=O)N[C@@H](CO)C(=O)N[C@@H](CCCCN)C(=O)N[C@@H](CO)C(=O)N1CCC[C@H]1C(=O)N1CCC[C@H]1C(=O)N1CCC[C@H]1C(=O)N[C@@H](CO)C(N)=O)C(C)C [Compound A66] (H-YSHGTFTSDYSKYLD[Aib]KRAQEFV[Aib]WLEDEPKSKSPPPS-NH2; N-terminus assumed) | < 9.00 |
